{"source": "patent US12661382B2", "about": "“Method for obtaining oleocanthal type secoiridoids and for producing respective pharmaceutical preparations” (OMPHAX SA, priority 2019, dated 2026)", "assay": "water solubility", "type": "physicochemical"}
{"substance": "5S-(E)-oleokoronadiol [Substance 10]", "values": [{"measurement": "water solubility with respect to substances (1-6)", "value": "greatly increased water solubility"}]}
{"substance": "5S-(E)-oleomissionadiol [Substance 9]", "values": [{"measurement": "water solubility with respect to substances (1-6)", "value": "greatly increased water solubility"}]}
{"substance": "S-(E)-oleaceinediol [Substance 8]", "values": [{"measurement": "water solubility with respect to substances (1-6)", "value": "greatly increased water solubility"}]}
{"substance": "S-(E)-oleocanthadiol [Substance 7]", "values": [{"measurement": "water solubility with respect to substances (1-6)", "value": "greatly increased water solubility"}]}
{"substance": "ligstrodiol [Substance 12]", "values": [{"measurement": "water solubility with respect to substances (1-6)", "value": "greatly increased water solubility"}]}
{"substance": "oleuropeinediol [Substance 11]", "values": [{"measurement": "water solubility with respect to substances (1-6)", "value": "greatly increased water solubility"}]}
